Test results as given in patent US4228187A, “Alkyl and cycloalkylthiophenylalkylaminoalkanols, their salts and the preparation thereof” (priority 1973, dated 1980).

Columns and labels:
Hist. = test: Antispasmodic activity, Hist.
guinea pig atria's = test: Protective activity against anoxia (guinea pig atria); design: key: scale: + = 10 to 20% increase in survival time; settings: increase in survival time
Description: (5) guinea pig atria's;
+ = increase in survival time of 10 to 20%

Ac.chol. = test: Antispasmodic activity, Ac.chol.
BaCl2 = test: Antispasmodic activity, BaCl2
cholesterol biosynthesis = test: Inhibition of cholesterol biosynthesis in vitro (rat liver); format: cell-based; settings: Rattus norvegicus, AA, rat liver, mean, read-out: Inhibition of incorporation of 1-^14 C-acetate (AA)
Description: |Inhibition of cholesterol biosynthesis in vitro (rat liver). In- |hibitory effect of suloctidil and clofibrate on the incorpora- |tion of 1-^14 [NT] and 2-^14 C-mevalonate (MVA). |are mean values and range, expressed in % of inhibition. Unless |otherwise stated, n = 3.

DL50 mouse p.o. = settings: in vivo, po, limits of reliability (p : 0.95) in brackets
Description: (1) the limits of reliability (p : 0.95) are given in brackets.

[1] = system: spontaneously hypertensive rat; test: Antihypertensive activity (spontaneously hypertensive rat); format: in vivo; settings: 15 mg/kg per os
Method: (3) spontaneously hypertensive rat; 15 mg/kg per os;
± reduction of systolic pressure up to 10 mm of Hg
+ reduction of systolic pressure of 10 to 20 mm Hg
++ reduction of systolic pressure of at least 20 mm of Hg

[2] = system: peripheral vasodilatatory activity; test: Vasodilatory effect after intraarterial injection in dog; format: in vivo
Method: (1) intraarterial injection in dog (5 animals) 10, 20 and 30 μg/kg.
(2) maximum vasodilatory effect in mm of Hg.
(3) and (4) expressed in seconds.

Row | Molecule | Antispasmodic activity CE 100, Hist. (Hist.) [μ g γ 60 ml] | Protective activity against anoxia (guinea pig atria's) | Antispasmodic activity CE 100, Ac.chol. (Ac.chol.) [μ g γ 60 ml] | Antispasmodic activity CE 100, BaCl2 (BaCl2) [μ g γ 60 ml] | LD50 (DL50 mouse p.o.) [mg/kg] | Anti-hypertensive activity [1] | further results
1 | 1-(4-methylthiophenyl)-2-n-octylaminopropanol [No 11] | 1000 | 0 | 1000 | > 1000 | – | – | –
2 | CCOC(=O)C(C)(C)Oc1ccc(Cl)cc1 [Clofibrate, reference compound] | – | – | – | – | – | – | inhibition at 100 µM (cholesterol biosynthesis; 10^-4 M): 47.4%; inhibition at 10 µM (cholesterol biosynthesis; 10^-5 M): 4.2%
3 | CCCCNC(C)C(O)c1ccc(SC(C)C)cc1 (stereo not drawn) [No 1] | 500 | 0 | 1000 | 500 | 680 | – | –
4 | CC(C)NC(C)C(O)c1ccc(SC(C)C)cc1 (stereo not drawn) [No 3] | – | – | – | – | 630 | – | –
5 | CCC(C)NC(C)C(O)c1ccc(SC(C)C)cc1 (stereo not drawn) [No 4] | 1000 | 0 | 1000 | 500 | 520 | – | –
6 | CC(C)Sc1ccc(C(O)C(C)NC(C)(C)C)cc1 (stereo not drawn) [No 5] | > 1000 | 0 | 1000 | 1000 | – | – | –
7 | CCCCNC(CC)C(O)c1ccc(SC(C)C)cc1 (stereo not drawn) [No 6] | 500 | 0 | 100 | 1000 | > 1000 | – | –
8 | CCC(NC(C)C)C(O)c1ccc(SC(C)C)cc1 (stereo not drawn) [No 7] | 1000 | 0 | 200 | 1000 | – | – | –
9 | CCCCCCCCNC(CC)C(O)c1ccc(SC(C)C)cc1 (stereo not drawn) [No 8] | 500 | 0 | 500 | 100 | > 4000 | 0 | –
10 | CCC(C)NC(CC)C(O)c1ccc(SC(C)C)cc1 (stereo not drawn) [No 9] | 1000 | ++ (increase in survival time of more than 25%) | 200 | 500 | – | – | –
11 | CCCCNC(C)C(O)c1ccc(SC)cc1 (stereo not drawn) [No 10] | 1000 | + (increase in survival time of 10 to 20%) | 500 | 1000 | ~100 | 0 | –
12 | CCCCCCCCNC(C)C(O)c1ccc(SC)cc1 (stereo not drawn) [No 11] | 200 | 0 | 200 | 100 | 970 | ++ (reduction of systolic pressure of at least 20 mm of Hg) | –
13 | CCCCNC(C)C(O)c1ccc(SCC)cc1 (stereo not drawn) [No 12] | 1000 | 0 | 500 | 1000 | 312 | – | –
14 | CCCCCCCCNC(C)C(O)c1ccc(SCC)cc1 (stereo not drawn) [No 13] | 100 | 0 | 200 | 100 | 1750 | ++ (reduction of systolic pressure of at least 20 mm of Hg) | –
15 | CCCCNC(C)C(O)c1ccc(SC2CCCCC2)cc1 (stereo not drawn) [No 14] | 500 | – | 100 | 200 | – | – | –
16 | CCCCCCCCNC(C)C(O)c1ccc(SC2CCCCC2)cc1 (stereo not drawn) [No 15] | 1000 | – | 500 | 1000 | ~5000 | ++ (reduction of systolic pressure of at least 20 mm of Hg) | –
17 | CCC(C)NC(C)C(O)c1ccc(SC2CCCCC2)cc1 (stereo not drawn) [No 16] | 500 | – | 200 | 200 | – | – | –
18 | CCCCNC(CC)C(O)c1ccc(SC)cc1 (stereo not drawn) [No 17] | 1000 | 0 | 1000 | 1000 | 122 | + (reduction of systolic pressure of 10 to 20 mm Hg) | –

Row | Molecule | Antispasmodic activity CE 100, Hist. (Hist.) [μ g γ 60 ml] | Protective activity against anoxia (guinea pig atria's) | Antispasmodic activity CE 100, Ac.chol. (Ac.chol.) [μ g γ 60 ml] | Antispasmodic activity CE 100, BaCl2 (BaCl2) [μ g γ 60 ml] | LD50 (DL50 mouse p.o.) [mg/kg] | Anti-hypertensive activity [1] | further results
19 | CCCCCCCCNC(CC)C(O)c1ccc(SC)cc1 (stereo not drawn) [No 18] | 200 | 0 | 200 | 500 | ~3500 | 0 | –
20 | CCCCNC(CC)C(O)c1ccc(SCC)cc1 (stereo not drawn) [No 19] | 1000 | 0 | 1000 | 500 | 640 | – | –
21 | CCCCCCCCNC(CC)C(O)c1ccc(SCC)cc1 (stereo not drawn) [No 20] | 200 | 0 | 100 | 100 | ~2450 | 0 | –
22 | CC(NC(C)(C)C)C(O)c1ccc(SC2CCCCC2)cc1 (stereo not drawn) [No 21] | 500 | – | 100 | 500 | – | 0 | –
23 | CC(C)CSc1ccc(C(O)C(C)NC(C)C)cc1 (stereo not drawn) [No 22] | 500 | 0 | 1000 | 500 | 1280 | – | –
24 | CCC(C)NC(C)C(O)c1ccc(SCC(C)C)cc1 (stereo not drawn) [No 23] | 200 | 0 | 200 | 500 | – | – | –
25 | CC(C)CSc1ccc(C(O)C(C)NC(C)(C)C)cc1 (stereo not drawn) [No 24] | 200 | – | 1000 | 500 | – | – | –
26 | CCCCNC(C)C(O)c1ccc(SCC(C)C)cc1 (stereo not drawn) [No 25] | 200 | 0 | 100 | 200 | 1350 | – | –
27 | CCCCCCCCNC(C)C(O)c1ccc(SCC(C)C)cc1 (stereo not drawn) [No 26] | 200 | 0 | 200 | 200 | > 4000 | – | –
28 | CCC(NC(C)C)C(O)c1ccc(SC2CCCCC2)cc1 (stereo not drawn) [No 27] | 500 | – | 200 | 200 | – | – | –
29 | CCCCCCNC(C)C(O)c1ccc(SC(C)C)cc1 (stereo not drawn) [No 28] | – | – | – | – | 1450 | – | –
30 | CCCCCCCNC(C)C(O)c1ccc(SC(C)C)cc1 (stereo not drawn) [No 29] | – | – | – | – | ~2400 | – | –
31 | CCCCCCCCNC(C)C(O)c1ccc(SC2CCCC2)cc1 (stereo not drawn) [No 32] | – | – | – | – | > 4000 | ++ (reduction of systolic pressure of at least 20 mm of Hg) | –
32 | CC(C(O)c1ccc(SC2CCCCC2)cc1)N1CCCCC1 (stereo not drawn) [No 33] | > 1000 | – | > 1000 | > 1000 | – | – | –
33 | CCC(C(O)c1ccc(SC2CCCCC2)cc1)N1CCCCC1 (stereo not drawn) [No 34] | 1000 | – | 100 | 200 | – | – | –
34 | CC(Cc1ccccc1)NC(C)C(O)c1ccc(SC(C)C)cc1 (stereo not drawn) [No 35] | 200 | – | 500 | 500 | 2100 | ± (reduction of systolic pressure up to 10 mm of Hg) | –
35 | COc1ccc(Cc2nccc3cc(OC)c(OC)cc23)cc1OC [papaverine, reference compound] | – | – | – | – | – | – | Amplitude (maximum vasodilatory effect) ([2]; 10 μg/kg): 40 mm of Hg; Duration of effect ([2]; 10 μg/kg): 43 s; Amplitude (maximum vasodilatory effect) ([2]; 20 μg/kg): 51 mm of Hg; Duration of effect ([2]; 20 μg/kg): 45 s; Amplitude (maximum vasodilatory effect) ([2]; 30 μg/kg): 54 mm of Hg; Duration of effect ([2]; 30 μg/kg): 47 s
